Tested on: patients with postpartum depression (PPD)
Experiment: Open-label clinical trial of inhaled 5-MeO-DMT in postpartum depression (one patient, IDR 6 mg then 12 mg)
Protocol: The single-arm, open-label clinical trial will involve 15 adult female patients with clinically diagnosed postpartum depression (PPD).
The second dose (12 mg) will only be administered if: • a. […] The 6 mg dose was safe and well-tolerated according to the investigator, • c. Any psychoactive effects (PsE) of the prior dose have subsided, and • d. Pre-dose vital parameters and forced expiratory volume in one second (FEV1) are in normal range, or if outside of the normal range, are not clinically significant according to the investigator. • 3. Similarly, a third dose (18 mg) will only be administered if: • a. […] The 12 mg dose was safe and well-tolerated according to the investigator, and • c. Any PsE of the prior dose have subsided, and • d. Pre-dose vital parameters and forced expiratory volume in one second (FEV1) are in normal range, or if outside of the normal range, are not clinically significant according to the investigator.
The patients will be assessed for a peak psychedelic experience (based on a patient-scored visual analogue scale, the PE scale), sedation, and other endpoints after dosing. Follow-up visits are planned for Day 1, and Day 7 after the dosing day.

For `COc1ccc2[nH]cc(CCN(C)C)c2c1` [5-MeO-DMT], the “MADRS apparent sadness improvement” value (2 hr) was 5, the “MADRS apparent sadness score” value (2 hr) was 0 and the “MADRS concentration difficulties improvement” value (2 hr) was 0. The “MADRS concentration difficulties score” value (2 hr) was 0, the “MADRS inability to feel improvement” value (2 hr) was 3 and the “MADRS inability to feel score” value (2 hr) was 0. For the same molecule, the “MADRS inner tension improvement” value (2 hr) was 5, the “MADRS inner tension score” value (2 hr) was 0 and the MADRS lassitude improvement (2 hr) was 3. The MADRS lassitude score (2 hr) was 0, the “MADRS pessimistic thoughts improvement” value (2 hr) was 4 and the “MADRS pessimistic thoughts score” value (2 hr) was 0. The “MADRS reduced appetite improvement” value (2 hr) was 0, the “MADRS reduced appetite score” value (2 hr) was 0 and the “MADRS reduced sleep improvement” value (2 hr) was 0. For the same molecule, the “MADRS reduced sleep score” value (2 hr) was 5, the “MADRS reported sadness improvement” value (2 hr) was 4 and the “MADRS reported sadness score” value (2 hr) was 0. The “MADRS suicidal thoughts improvement” value (2 hr) was 0, the “MADRS suicidal thoughts score” value (2 hr) was 0 and the “adverse events (abdominal pain, headache)” value (Day 0) was “mild, short-lasting and resolved spontaneously”. For the same molecule, the BPRS anxiety improvement (Day 1) was 6, the BPRS anxiety score (Day 1) was 1 and the “BPRS blunted affect improvement” value (Day 1) was 0. The “BPRS blunted affect score” value (Day 1) was 1, the “BPRS conceptual disorganization improvement” value (Day 1) was 0 and the “BPRS conceptual disorganization score” value (Day 1) was 1. For the same molecule, the “BPRS depressive mood improvement” value (Day 1) was 5, the “BPRS depressive mood score” value (Day 1) was 1 and the BPRS disorientation improvement (Day 1) was 0. The BPRS disorientation score (Day 1) was 1, the “BPRS emotional withdrawal improvement” value (Day 1) was 4 and the “BPRS emotional withdrawal score” value (Day 1) was 1. For the same molecule, the BPRS excitement improvement (Day 1) was 1, the BPRS excitement score (Day 1) was 1 and the BPRS grandiosity improvement (Day 1) was 0. For the same molecule, the BPRS grandiosity score (Day 1) was 1, the “BPRS guilt feelings improvement” value (Day 1) was 5 and the “BPRS guilt feelings score” value (Day 1) was 1. The “BPRS hallucinatory behaviour improvement” value (Day 1) was 0, the “BPRS hallucinatory behaviour score” value (Day 1) was 1 and the BPRS hostility improvement (Day 1) was 0. The BPRS hostility score (Day 1) was 1, the “BPRS mannerisms and posturing improvement” value (Day 1) was 0 and the “BPRS mannerisms and posturing score” value (Day 1) was 1. The “BPRS motor retardation improvement” value (Day 1) was 0, the “BPRS motor retardation score” value (Day 1) was 1 and the “BPRS somatic concern improvement” value (Day 1) was 5. The “BPRS somatic concern score” value (Day 1) was 1, the BPRS suspiciousness improvement (Day 1) was 0 and the BPRS suspiciousness score (Day 1) was 1. The BPRS tension score (Day 1) was 1, the BPRS uncooperativeness improvement (Day 1) was 0 and the BPRS uncooperativeness score (Day 1) was 1. For the same molecule, the “BPRS unusual thought content improvement” value (Day 1) was 0, the “BPRS unusual thought content score” value (Day 1) was 1 and the “MADRS apparent sadness improvement” value (Day 1) was 5. The “MADRS apparent sadness score” value (Day 1) was 0, the “MADRS concentration difficulties improvement” value (Day 1) was 0 and the “MADRS concentration difficulties score” value (Day 1) was 0. For the same molecule, the “MADRS inability to feel improvement” value (Day 1) was 3, the “MADRS inability to feel score” value (Day 1) was 0 and the “MADRS inner tension improvement” value (Day 1) was 5. For the same molecule, the “MADRS inner tension score” value (Day 1) was 0, the MADRS lassitude improvement (Day 1) was 3 and the MADRS lassitude score (Day 1) was 0. The “MADRS pessimistic thoughts improvement” value (Day 1) was 4, the “MADRS pessimistic thoughts score” value (Day 1) was 0 and the “MADRS reduced appetite improvement” value (Day 1) was 0. For the same molecule, the “MADRS reduced appetite score” value (Day 1) was 0, the “MADRS reduced sleep improvement” value (Day 1) was 5 and the “MADRS reduced sleep score” value (Day 1) was 0. The “MADRS reported sadness improvement” value (Day 1) was 4, the “MADRS reported sadness score” value (Day 1) was 0 and the “MADRS suicidal thoughts improvement” value (Day 1) was 0. For the same molecule, the “MADRS suicidal thoughts score” value (Day 1) was 0, the “BIMF functional domain Adjustment score” value (Day 7) was 6 and the “BIMF functional domain Infant Care score” value (Day 7) was 12. The “BIMF functional domain Management score” value (Day 7) was 33, the “BIMF functional domain Mother-Child Interaction score” value (Day 7) was 17 and the “BIMF functional domain Psychological Well-being score” value (Day 7) was 53. For the same molecule, the “BIMF functional domain Self-Care score” value (Day 7) was 13, the “BIMF functional domain Social Support score” value (Day 7) was 18 and the “BIMF item 1 score (I am a good mother)” value (Day 7) was 6. The “BIMF item 2 score (I feel rested)” value (Day 7) was 2, the “BIMF item 3 score (I am comfortable with the way I've chosen to feed my baby)” value (Day 7) was 6 and the “BIMF item 4 score (My baby and I understand each other)” value (Day 7) was 5. For the same molecule, the “BIMF item 5 score (I am able to relax and enjoy time with my baby)” value (Day 7) was 6, the “BIMF item 6 score (There are people in my life that I can trust to care for my baby)” value (Day 7) was 6 and the “BIMF item 8 score (I am getting enough adult interaction)” value (Day 7) was 6. The “BIMF item 9 score (I am getting enough encouragement from other people)” value (Day 7) was 6, the “BIMF item 10 score (I trust my own feelings (instincts))” value (Day 7) was 6 and the “BIMF item 11 score (I take a little time each week to do something for myself)” value (Day 7) was 6. For the same molecule, the “BIMF item 12 score (I am taking good care of my baby's physical needs)” value (Day 7) was 6, the “BIMF item 13 score (I am taking good care of my physical needs)” value (Day 7) was 5 and the “BIMF item 14 score (I make good descisions about my baby's health and well being)” value (Day 7) was 6. The “BIMF item 15 score (My baby and I are getting into a routine)” value (Day 7) was 6, the “BIMF item 16 score (I worry about how other people judge me)” value (Day 7) was 5 and the “BIMF item 17 score (I am able to take care of my baby and my other responsibilites)” value (Day 7) was 5. For the same molecule, the “BIMF item 18 score (Anxiety or worry often interferes with my mothering ability)” value (Day 7) was 1, the “BIMF item 19 score (As time goes on, I am getting better at taking care of my baby)” value (Day 7) was 1 and the “BIMF item 20 score (I am satisfied with the job I am doing as a new mother)” value (Day 7) was 5. For the same molecule, the BPRS anxiety improvement (Day 7) was 6, the BPRS anxiety score (Day 7) was 1 and the “BPRS blunted affect improvement” value (Day 7) was 0. The “BPRS blunted affect score” value (Day 7) was 1, the “BPRS conceptual disorganization improvement” value (Day 7) was 0 and the “BPRS conceptual disorganization score” value (Day 7) was 1. For the same molecule, the “BPRS depressive mood improvement” value (Day 7) was 5, the “BPRS depressive mood score” value (Day 7) was 1 and the BPRS disorientation improvement (Day 7) was 0. The BPRS disorientation score (Day 7) was 1, the “BPRS emotional withdrawal improvement” value (Day 7) was 4 and the “BPRS emotional withdrawal score” value (Day 7) was 1.
